{"source": "patent US8420630B2", "about": "(Boehringer Ingelheim Pharma GmbH & Co. KG, priority 2001, dated 2013)", "data": [{"target": "T1, CDK1/cyclinB1 (Homo sapiens, UniProt P06493)", "T1 construct": "made in house; host or cells: High Five insect cells (Trichoplusia ni), baculovirus coinfection", "T1 sequence (P06493 whole entry)": "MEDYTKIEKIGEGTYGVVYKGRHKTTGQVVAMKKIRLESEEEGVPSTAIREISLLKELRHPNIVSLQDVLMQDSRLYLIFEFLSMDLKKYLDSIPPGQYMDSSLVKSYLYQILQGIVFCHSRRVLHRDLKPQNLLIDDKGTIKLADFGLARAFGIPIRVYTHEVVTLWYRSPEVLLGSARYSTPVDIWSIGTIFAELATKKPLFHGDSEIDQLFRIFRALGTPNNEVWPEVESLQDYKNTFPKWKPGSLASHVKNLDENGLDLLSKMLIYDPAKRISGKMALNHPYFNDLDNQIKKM", "T1 sequence (P14635 whole entry partner)": "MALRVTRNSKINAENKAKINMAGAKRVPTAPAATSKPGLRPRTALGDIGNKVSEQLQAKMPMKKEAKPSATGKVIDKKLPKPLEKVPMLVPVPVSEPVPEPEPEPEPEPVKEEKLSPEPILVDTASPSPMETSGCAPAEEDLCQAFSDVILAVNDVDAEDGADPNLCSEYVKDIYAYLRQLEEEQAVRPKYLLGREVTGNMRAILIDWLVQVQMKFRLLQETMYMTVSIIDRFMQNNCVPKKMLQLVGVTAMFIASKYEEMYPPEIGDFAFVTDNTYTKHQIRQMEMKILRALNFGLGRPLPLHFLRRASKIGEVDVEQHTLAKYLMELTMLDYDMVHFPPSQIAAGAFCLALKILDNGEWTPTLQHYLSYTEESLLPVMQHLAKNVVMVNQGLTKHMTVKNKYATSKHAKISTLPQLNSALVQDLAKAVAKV", "test": "Cyclin B1-CDK1 kinase inhibition test", "assay_type": "biochemical", "details": "CDK1 tests (Example 13); recombinant cyclin B1/CDK1, substrate histone H1; read-out: CDK1/cyclinB1 IC50 value", "description": "CDK4) were cloned by standard methods using RT-PCR, and cloned into a transfer vector (cyclin in pAcG2T made by Pharmingen, CDKs in p2Bac made by Invitrogen) for the baculovirus system. […] After thawing the cells were resuspended in lysing buffer (50 mM HEPES pH 7.5, 10 mM MgCl2, 1 mM DTT, 5 μg/ml leupeptin, 5 μg/ml aprotinin, 100 μM NaF, 100 μM PMSF, 10 mM β-glycerolphosphate, 100 μM Na3VO4, 30 mM nitrophenylphosphate, 17.5 ml of lysing buffer per 10^8 cells) and incubated on ice for 30 min. […] Cyclin D1-CDK4 was purified by means of a GST-tag on cyclin D1 and then using glutathione beads (total protein about 0.2 mg/ml). All the kinase tests were carried out in 96-well microtitre plates (Greiner PS) in a final volume of 60 μl. […] As a negative control the kinase reaction was carried out in the absence of the substrate histone H1. As a positive control the kinase reaction was carried out in the absence of a test substance. As an internal control 30 μM and 300 μM (final concentration) of the kinase inhibitor olomoucin (Alexis) were used. […] The kinase reaction is started by the addition of 10 μl of ATP mix (0.045 mM ATP, 0.5 μCi ^33P-ATP in kinase buffer) and incubated for 30 min at 30° C. and 600 rpm in a shaking incubator. After incubation the plates were placed on ice and the proteins were precipitated by the addition of 125 μl of ice-cold 5% trichloroacetic acid. After 15 min on ice the precipitates were transferred onto Packard Unifilter 96 GF/B plates with the Packard Harvester System, and collected by vacuum filtration. The precipitates were washed 4 times with dist. H2O at ambient temperature. The filter plates were then dried at 60° C. and 50 μl of scintillation liquid were added to each well (Ultima Gold, Packard). The plate was sealed up with Sealing Tape and after 1 h measured in a scintillation measuring apparatus (Micro Beta made by Wallac).", "units": {"IC50": "nM"}, "values": [{"smiles": "CN(C)C(=O)NCCCNc1nc(Nc2ccc3cnn(C)c3c2)ncc1C(F)(F)F", "note": "[Example 7(035), 1,1-dimethyl-3-{3-[2-(1-methyl-1H-indazol-6-ylamino)-5-trifluoromethyl-pyrimidin-4-ylamino]-propyl}-urea]", "IC50": "< 100"}, {"smiles": "O=C1CCCN1CCCNc1nc(Nc2ccccc2)ncc1C(F)(F)F", "note": "[Example 1(031), 2-phenylamino-4-(3-(2-oxo-pyrrolidin-1-yl)-propyl-1-amino)-5-trifluoromethyl-pyrimidine]", "IC50": "< 100"}, {"smiles": "CC(=O)NCCNc1nc(Nc2ccc(Cl)cc2)ncc1C(F)(F)F", "note": "[Example 2(016), 2-(4-chloro-phenylamino)-4-(2-acetylamino-ethylamino)-5-trifluoromethyl-pyrimidine]", "IC50": "< 100"}, {"smiles": "CS(=O)(=O)NCCNc1nc(Nc2ccc(Cl)c(Cl)c2)ncc1C(F)(F)F", "note": "[Example 7(001), N-(2-[2-(3,4-dichloro-phenylamino)-5-trifluoromethyl-pyrimidin-4-ylamino]-ethyl)-methanesulphonamide]", "IC50": "< 100"}, {"smiles": "O=[N+]([O-])c1ccc(Nc2ncc([N+](=O)[O-])c(N3CCc4[nH]cnc4C3)n2)cc1", "note": "[Example 1(027), 2-(4-nitro-phenylamino)-4-(1,4,6,7-tetrahydro-imidazo[4,5-c]pyridin-5-yl)-5-nitro-pyrimidine]", "IC50": "< 100"}, {"smiles": "CC(=O)NCCNc1nc(Nc2cccc(S(=O)(=O)N(C)C)c2)ncc1C(F)(F)F", "note": "[Example 1(651), N-{2-[2-(3-dimethylsulphamoyl-phenylamino)-5-trifluoromethyl-pyrimidin-4-ylamino]-ethyl}-acetamide]", "IC50": "< 100"}, {"smiles": "NCCCCNc1nc(Nc2ccc(Cl)c(Cl)c2)ncc1C(F)(F)F", "note": "[Example 1(304), 2-(3,4-dichlorophenylamino)-4-(4-aminobutylamino)-5-trifluoromethyl-pyrimidine]", "IC50": "< 100"}, {"smiles": "CC(=O)NCCNc1nc(Nc2ccc(C(=O)O)cc2)ncc1C(F)(F)F", "note": "[Example 9(001), 4-[4-(2-acetylamino-ethylamino)-5-trifluoromethyl-pyrimidin-2-ylamino]-benzoic acid]", "IC50": "< 100"}, {"smiles": "O=C(O)c1ccc(Nc2ncc([N+](=O)[O-])c(N3CCc4[nH]cnc4C3)n2)cc1", "note": "[Example 1(029), 2-(4-carboxy-phenylamino)-4-(1,4,6,7-tetrahydro-imidazo[4,5-c]pyridin-5-yl)-5-nitro-pyrimidine]", "IC50": "< 100"}, {"smiles": "NS(=O)(=O)c1ccc(Nc2ncc([N+](=O)[O-])c(NCCCN3CCCC3=O)n2)cc1", "note": "[Example 1(008), 2-(4-aminosulphonyl-phenylamino)-4-(3-(2-oxo-pyrrolidin-1-yl)-propyl-1-amino)-5-nitro-pyrimidine]", "IC50": "< 100"}, {"smiles": "FC(F)(F)c1cnc(Nc2ccc(Cl)c(Cl)c2)nc1NCCCN1CC2C=CC1C2", "note": "(centres unmarked) [Example 1(009), 2-(3,4-dichlorophenylamino)-4-(3-(2-aza-bicyclo[2.2.1]hept-5-en-2-yl)-propylamino)-5-trifluoro-methyl-pyrimidine]", "IC50": "< 100"}, {"smiles": "COC(=O)NCCCNc1nc(Nc2ccc3cnn(C)c3c2)ncc1C(F)(F)F", "note": "[Example 7(022)]", "IC50": "< 100"}, {"smiles": "CN(C)S(=O)(=O)c1ccc(Nc2ncc(C(F)(F)F)c(N3CCc4nc[nH]c4C3)n2)cc1", "note": "[Example 1(694), N,N-dimethyl-4-[4-(3,4,6,7-tetrahydro-imidazo[4,5-c]pyridin-5-yl)-5-trifluoromethyl-pyrimidin-2-ylamino]-phenylsulphonamide]", "IC50": "< 100"}, {"smiles": "CC(=O)NCCNc1nc(Nc2ccc(CC(=O)N(C)C)cc2)ncc1C(F)(F)F", "note": "[Example 2(053), 2-{4-[4-(2-Acetylamino-ethylamino)-5-trifluoromethyl-pyrimidin-2-ylamino]-phenyl}-N,N-dimethyl-acetamide]", "IC50": "< 100"}, {"smiles": "O=C(O)CCc1ccc(Nc2ncc([N+](=O)[O-])c(N3CCc4[nH]cnc4C3)n2)cc1", "note": "[Example 1(112), 2-(4-(2-carboxy-1-ethyl)-phenylamino)-4-(1,4,6,7-tetrahydro-imidazo[4,5-c]pyridin-5-yl)-5-nitro-pyrimidine]", "IC50": "< 100"}, {"smiles": "CC(=O)NCCNc1nc(Nc2ccc(NS(C)(=O)=O)cc2)ncc1C(F)(F)F", "note": "[Example 10(014), N-(2-[2-(4-methanesulphonylamido-phenylamino)-5-trifluoromethyl-pyrimidin-4-ylamino]-ethyl)-acetamide]", "IC50": "< 100"}, {"smiles": "FC(F)(F)c1cnc(Nc2ccc(Br)cc2)nc1N1CCc2[nH]cnc2C1", "note": "[Example 1(019), 2-(4-bromo-phenylamino)-4-(1,4,6,7-tetrahydro-imidazo[4,5-c]pyridin-5-yl)-5-trifluoromethyl-pyrimidine]", "IC50": "< 100"}, {"smiles": "CC(=O)NCCNc1nc(Nc2ccc(C(=O)NC(C)c3ccccc3)cc2)ncc1C(F)(F)F", "note": "(centres unmarked) [Example 8(028), 4-[4-(2-acetylamino-ethylamino)-5-trifluoromethyl-pyrimidin-2-ylamino]-N-(1-phenyl-ethyl)-benzamide]", "IC50": "< 100"}, {"smiles": "CC(C)NC(=O)NCCCNc1nc(Nc2ccc3cnn(C)c3c2)ncc1C(F)(F)F", "note": "[Example 7(036), 1-isopropyl-3-{3-[2-(1-methyl-1H-indazol-6-ylamino)-5-trifluoromethyl-pyrimidin-4-ylamino]-propyl}-urea]", "IC50": "< 100"}, {"smiles": "Nc1c(Cl)cc(Nc2ncc([N+](=O)[O-])c(N3CCc4[nH]cnc4C3)n2)cc1Cl", "note": "[Example 1(113), 2-(4-amino-3,5-dichlorophenylamino)-4-(1,4,6,7-tetrahydro-imidazo[4,5-c]pyridin-5-yl)-5-nitro-pyrimidine]", "IC50": "< 100"}, {"smiles": "Cc1cc(Nc2ncc([N+](=O)[O-])c(NCC3CCC(CN)CC3)n2)ccc1Cl", "note": "(centres unmarked) [Example 1(115), 2-(4-chloro-3-methyl-phenylamino)-4-(4-aminomethyl-cyclohexylmethylamino)-5-nitro-pyrimidine]", "IC50": "< 100"}, {"smiles": "CC(=O)NCCNc1nc(Nc2ccc(S(N)(=O)=O)cc2)ncc1C(F)(F)F", "note": "[Example 2(008), 2-(4-aminosulphonyl-phenylamino)-4-(2-acetylamino-ethylamino)-5-trifluoromethyl-pyrimidine]", "IC50": "< 100"}, {"smiles": "CC(=O)NCCNc1nc(Nc2cccc(Br)c2)ncc1C(F)(F)F", "note": "[Example 2(012), 2-(3-bromo-phenylamino)-4-(2-acetylamino-ethylamino)-5-trifluoromethyl-pyrimidine]", "IC50": "< 100"}, {"smiles": "CN1CCC(N(C)c2nc(Nc3ccc(Cl)cc3)ncc2[N+](=O)[O-])CC1", "note": "[Example 1(044), 2-(4-chloro-phenylamino)-4-(N-(1-methyl-piperidin-4-yl)-N-methyl-amino)-5-nitro-pyrimidine]", "IC50": "< 100"}, {"smiles": "FC(F)(F)c1cnc(Nc2cccc(Br)c2)nc1N1CCc2[nH]cnc2C1", "note": "[Example 1(038), 2-(3-bromo-phenylamino)-4-(1,4,6,7-tetrahydro-imidazo[4,5-c]pyridin-5-yl)-5-trifluoromethyl-pyrimidine]", "IC50": "< 100"}, {"smiles": "O=C1CCCN1CCCNc1nc(Nc2ccc3[nH]cnc3c2)ncc1C(F)(F)F", "note": "[Example 2(037), 1-{3-[2-(1H-Benzimidazol-5-ylamino)-5-trifluoromethyl-pyrimidin-4-ylamino]-propyl}-pyrrolidin-2-one]", "IC50": "< 100"}, {"smiles": "NC1CCC(Nc2nc(Nc3ccc(C(=O)O)cc3)ncc2C(F)(F)F)CC1", "note": "(centres unmarked) [Example 1(111), 2-(4-carboxyphenylamino)-4-(4-amino-cyclohexylamino)-5-trifluoromethyl-pyrimidine]", "IC50": "< 100"}, {"smiles": "O=C1CCCN1CCCNc1nc(Nc2ccc(-c3nn[nH]n3)cc2)ncc1C(F)(F)F", "note": "[Example 2(076), 1-(3-{2-[4-(2H-tetrazol-5-yl)-phenylamino]-5-trifluoromethyl-pyrimidin-4-ylamino}-propyl)-pyrrolidin-2-one]", "IC50": "< 100"}, {"smiles": "O=C(Nc1ccccc1)c1ccc(Nc2ncc([N+](=O)[O-])c(N3CCc4[nH]cnc4C3)n2)cc1", "note": "[Example 1(026), 2-(4-phenylaminocarbonyl-phenylamino)-4-(1,4,6,7-tetrahydro-imidazo[4,5-c]pyridin-5-yl)-5-nitro-pyrimidine]", "IC50": "< 100"}, {"smiles": "CN(C)[C@H]1CC[C@H](Nc2nc(Nc3ccc(C(=O)O)cc3)ncc2C(F)(F)F)CC1", "note": "[Example 1(054), 2-(4-carboxy-phenylamino)-4-(trans-4-dimethylamino-cyclohexylamino)-5-trifluoromethyl-pyrimidine]", "IC50": "< 100"}, {"smiles": "NC(=O)c1cccc(Nc2ncc([N+](=O)[O-])c(N3CCc4[nH]cnc4C3)n2)c1", "note": "[Example 1(022), 2-(3-aminocarbonyl-phenylamino)-4-(1,4,6,7-tetrahydro-imidazo[4,5-c]pyridin-5-yl)-5-nitro-pyrimidine]", "IC50": "< 100"}, {"smiles": "FC(F)(F)c1cnc(Nc2cccc(Cl)c2)nc1N1CCc2[nH]cnc2C1", "note": "[Example 1(005), 2-(3-chlorophenylamino)-4-(1,4,6,7-tetrahydro-imidazo[4,5-c]pyridin-5-yl)-5-trifluoromethyl-pyrimidine]", "IC50": "< 100"}]}]}
